Reference: US7279302B2, “Methods for identifying herbicidal compounds” (Bayer CropScience S.A., priority 2000, dated 2007)

Key:
Format in all cases: biochemical
[1] = target: T1, TyrA-AT2 arogenate dehydrogenase (Arabidopsis thaliana, UniProt Q944B6); assay: arogenate dehydrogenase activity, spectrophotometric monitoring at 340 nm, recombinant TyrA-AT2; conditions: for Michaelis constant: Km for substrate/cofactor; for inhibition of arogenate dehydrogenase activity: 1 mM
T1 construct: at the ATG codon of the second open reading frame (at position 1081 from the first ATG codon); made in house; host or cells: Escherichia coli AT2471 (pET21a(+)), soluble crude extract
T1 sequence (Q944B6 339-640): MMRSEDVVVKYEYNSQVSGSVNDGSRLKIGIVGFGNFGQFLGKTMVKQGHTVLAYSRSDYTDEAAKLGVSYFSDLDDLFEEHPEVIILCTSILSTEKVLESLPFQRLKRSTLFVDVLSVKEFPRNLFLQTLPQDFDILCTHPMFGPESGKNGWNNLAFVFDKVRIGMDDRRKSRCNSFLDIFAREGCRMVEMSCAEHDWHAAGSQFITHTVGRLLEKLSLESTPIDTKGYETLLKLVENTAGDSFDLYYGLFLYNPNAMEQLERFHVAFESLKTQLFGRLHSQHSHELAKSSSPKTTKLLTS
Protocol: (§1) The arogenate dehydrogenase activity is measured at 25° C. by spectrophotometric monitoring, at 340 nm, of the formation of NADH or NADPH in a solution containing 50 mM of Tris-HCl, pH 8.6, 300 μm of arogenate and 1 mM of NAD or […] in a total volume of 200 μl.
(§2) Eshcerichia coli AT2471 cells were transformed with each one of the plasmids pET21-TyrA-AT obtained in example 3, and then cultured at 37° C. in 2 liters of Luria-Bertani medium supplemented with 100 μg/ml of carbenicillin. When the culture had reached the equivalent of an absorbance at 600 nm (A600) of 0.6, 1 mM of isopropyl-β-D-thiogalactoside was added to the culture medium in order to induce recombinant protein synthesis. The cells were then cultured for 16 h at 28° C., harvested, and then centrifuged for 20 min at 40 000 g. The pellet was then resuspended in a 50 mM Tris-HC1 buffer, pH 7.5, containing 1 mM EDTA, 1 mM dithiothreitol, 1 mM benzamidine HCl and 5 mM aminocaproic acid, and then sonicated (100 pulses every 3 seconds at power 5) with a Vibra-Cell disrupter (Sonics and Materials, Danbury, Conn., USA). The crude extracts thus obtained were then centrifuged for 20 min at 40 000 g, and the supernatants were used directly for the enzyme assays.
(§3) The biochemical characterization of the recombinant arogenate dehydrogenase enzymes was carried out using the soluble protein extracts of the transformed E. coli strains. The arogenate dehydrogenase activity was measured according to the method described in example 4. […] No arogenate dehydrogenase activity was detected in the presence of NAD, and no prephenate dehydrogenase activity was detected whatever the cofactor used (NADP or NAD) and whatever the protein tested (TyrA-ATc, TyrA-AT1 or TyrA-AT2). […] Each one of these enzymes has a Michaelis-Menten-type behavior, and their Km value for arogenate and NADP is relatively the same (FIGS. 2 and 3). The Michaelis constants for NADP are, respectively, 40 μM for TyrA-Atc, 60 μM for TyrA-AT1, and 20 μM for TyrA-AT2. The Michaelis constants for arogenate are, respectively, 70 μM for TyrA-Atc, 45 μM for TyrA-AT1, and 45 μM for TyrA-AT2. In addition, like the other plant arogenate dehydrogenases (Byng et al., 1981, Phytochemistry 6, 1289-1292; Connelly and Conn, 1986, Z. Naturforsch 41c, 69-78; Gaines et al., 1982 Planta 156, 233-240), the Arabidopsis arogenate dehydrogenases are all very sensitive to tyrosine, the product of the enzyme reaction, and insensitive to 1 mM of phenylalanine and 1 mM of p-hydroxyphenylpyruvate.

[2] = target: T2, TyrA-AT1 arogenate dehydrogenase (Arabidopsis thaliana, UniProt Q944B6); assay: arogenate dehydrogenase activity, spectrophotometric monitoring at 340 nm, recombinant TyrA-AT1; conditions: for Michaelis constant: Km for substrate/cofactor; for inhibition of arogenate dehydrogenase activity: 1 mM
T2 construct: recombinant proteins were observed only with the constructs encoding the proteins M58-TyrA-Atc and M58-TyrA-AT1; made in house; host or cells: Escherichia coli AT2471 (pET21a(+)), soluble crude extract
T2 sequence (Q944B6 with tags, fused parts or gaps): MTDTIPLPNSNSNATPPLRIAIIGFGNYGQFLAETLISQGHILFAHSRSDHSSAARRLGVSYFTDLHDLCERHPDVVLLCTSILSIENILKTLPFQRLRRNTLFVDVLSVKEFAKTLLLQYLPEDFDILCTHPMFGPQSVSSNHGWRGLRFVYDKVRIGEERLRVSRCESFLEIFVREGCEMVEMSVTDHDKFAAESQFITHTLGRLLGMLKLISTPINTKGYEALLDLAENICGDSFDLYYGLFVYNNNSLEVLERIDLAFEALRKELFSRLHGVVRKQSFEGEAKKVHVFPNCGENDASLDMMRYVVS
Protocol: as §1, §2, §3

[3] = target: T3, TyrA-ATc arogenate dehydrogenase (Arabidopsis thaliana, UniProt Q944B6, V36M); assay: arogenate dehydrogenase activity, spectrophotometric monitoring at 340 nm, recombinant TyrA-ATc; conditions: for Michaelis constant: TyrA-Atc, Km for substrate/cofactor; for inhibition of arogenate dehydrogenase activity: TyrA-ATc, 1 mM
T3 construct: introduces an ATG initiating codon and an Nde I restriction site (underlined) at position 174 from the first ATG codon (V58M); made in house; host or cells: Escherichia coli AT2471 (pET21a(+)), soluble crude extract
T3 sequence (Q944B6 36-640 V36M): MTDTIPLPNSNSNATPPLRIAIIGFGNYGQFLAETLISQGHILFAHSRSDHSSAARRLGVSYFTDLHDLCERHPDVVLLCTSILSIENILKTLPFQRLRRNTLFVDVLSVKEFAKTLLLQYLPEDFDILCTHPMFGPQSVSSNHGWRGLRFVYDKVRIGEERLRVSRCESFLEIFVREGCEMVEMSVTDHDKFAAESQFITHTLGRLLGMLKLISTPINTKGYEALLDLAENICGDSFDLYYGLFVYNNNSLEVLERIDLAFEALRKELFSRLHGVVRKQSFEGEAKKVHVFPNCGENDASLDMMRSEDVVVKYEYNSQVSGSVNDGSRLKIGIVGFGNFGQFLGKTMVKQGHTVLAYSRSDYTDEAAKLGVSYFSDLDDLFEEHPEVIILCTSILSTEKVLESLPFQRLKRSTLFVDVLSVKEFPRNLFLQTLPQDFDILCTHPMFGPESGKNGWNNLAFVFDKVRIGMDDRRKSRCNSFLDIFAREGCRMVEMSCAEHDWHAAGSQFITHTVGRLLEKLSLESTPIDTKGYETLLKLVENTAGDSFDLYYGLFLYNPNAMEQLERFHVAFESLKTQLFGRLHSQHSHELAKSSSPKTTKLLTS
Protocol: as §1, §2, §3

[4] = system: Synechocystis arogenate dehydrogenase; assay: arogenate dehydrogenase activity, spectrophotometric monitoring at 340 nm, recombinant Synechocystis enzyme; conditions: for Michaelis constant: Km for substrate/cofactor
Protocol: as §1, §2
The sequence of the gene encoding the A. thaliana arogenate dehyrogenase identified in example 1 (TyrA) made it possible to identify an arogenate dehydrogenase gene in the bacterium Synechocystis (accession number: 1652956). This gene was originally described as encoding a “prephenate dehydrogenase” enzyme. It was isolated from a Synechocystis genomic library and the enzyme was produced in the same way as the A. thaliana enzyme, according to the protocol described in example 5 . […] The arogenate dehydrogenase activity was measured according to the method described in example 4 . […] No arogenate dehydrogenase activity was detected in the presence of NAD, and no prephenate dehydrogenase activity was detected whatever the cofactor used (NADP or NAD). […]

[5] = target: T4, TyrA-ATc arogenate dehydrogenase (Arabidopsis thaliana, UniProt Q944B6); assay: arogenate dehydrogenase activity, spectrophotometric monitoring at 340 nm, recombinant TyrA-ATc; conditions: TyrA-Atc; inhibition competitive with respect to arogenate
T4 construct: introduces an ATG initiating codon and an Nde I restriction site (underlined) at position 174 from the first ATG codon (V58M); made in house; host or cells: Escherichia coli AT2471 (pET21a(+)), soluble crude extract
T4 sequence (Q944B6 36-640 V36M): as above
Protocol: as §1, §2, §3

[6] = inhibition competitive with respect to arogenate

Row | Structure (SMILES) | Michaelis constant [1] [µM] | Michaelis constant [2] [µM] | Michaelis constant [3] [µM] | Michaelis constant [4] [µM] | inhibition of arogenate dehydrogenase activity [1] | inhibition of arogenate dehydrogenase activity [2] | inhibition of arogenate dehydrogenase activity [3] | other results
1 | NC(=O)c1ccc[n+]([C@@H]2O[C@H](COP(=O)([O-])OP(=O)(O)OC[C@H]3O[C@@H](n4cnc5c(N)ncnc54)[C@H](OP(=O)(O)O)[C@@H]3O)[C@@H](O)[C@H]2O)c1 [NADP] | 20 | 60 | 40 | 6 | – | – | – | –
2 | N[C@@H](CC1(C(=O)O)C=CC(O)C=C1)C(=O)O (stereo partly drawn) [arogenate] | 45 | 45 | 70 | 107 | – | – | – | –
3 | O=C(O)C(=O)Cc1ccc(O)cc1 [p-hydroxyphenylpyruvate] | – | – | – | – | insensitive | insensitive | insensitive | –
4 | N[C@@H](Cc1ccccc1)C(=O)O [phenylalanine] | – | – | – | – | insensitive | insensitive | insensitive | –
5 | O=C(O)C(=O)CC1(C(=O)O)C=CC(O)C=C1 (stereo not drawn) [prephenate] | – | – | – | – | does not inhibit | does not inhibit | does not inhibit | inhibition of arogenate dehydrogenase activity ([4]; 1 mM): does not inhibit
6 | N[C@@H](Cc1ccc(O)cc1)C(=O)O [tyrosine] | – | – | – | – | – | – | – | Ki [1, 6]: 12 µM; Ki [2, 6]: 8 µM; Ki [5]: 14 µM
